Measured values: US20080193986A1, “Mutant strain of Amycolatopsis orientalis and process for preparing vancomycin hydrochloride” (priority 2007, published 2008)
Structures can show the parent of a compound that is named as a salt.

Columns and labels:
[1] = Solubility of dried powder; type: physicochemical; settings: dried vancomycin hydrochloride of Example 9
Method: (§1) Next, chilled absolute ethanol was added to the concentrate drop by drop until vancomycin hydrochloride was crystallized, the slurry was left in refrigerator for 12 hours to accelerate the crystallization, and then the slurry was filtered off. The filtered precipitate was dried in a vacuum dryer at 40° C. […] The analytical results are illustrated in FIG. 3 and FIG. 4.

[2] = Antimicrobial activity by analysis based on U.S. Pharmacopeia 28; settings: dried vancomycin hydrochloride of Example 9
Method: as §1

CN[C@H](CC(C)C)C(=O)N[C@H]1C(=O)N[C@@H](CC(N)=O)C(=O)N[C@H]2C(=O)N[C@H]3C(=O)N[C@H](C(=O)N[C@H](C(=O)O)c4cc(O)cc(O)c4-c4cc3ccc4O)[C@H](O)c3ccc(c(Cl)c3)Oc3cc2cc(c3O[C@@H]2O[C@H](CO)[C@@H](O)[C@H](O)[C@H]2O[C@H]2C[C@](C)(N)[C@H](O)[C@H](C)O2)Oc2ccc(cc2Cl)[C@H]1O [vancomycin hydrochloride]
solubility of powder [1]: freely soluble | antimicrobial activity [2]: 1050 U
